Test results reported in US11845740B2, “Glutaminyl cyclase inhibitors and the use thereof in treatment of various diseases” (OBSCHESTVO S OGRANICHENNOI OTVETSTVENNOSTIYU …, priority 2017, dated 2023).

Molecular target: recombinant intracellular human glutaminyl cyclase (Homo sapiens (Human), UniProt Q9NXS2)
Test: Enzymatic activity of human glutaminyl cyclase in vitro (fluorescent substrate Gln-bNA)
Assay type: biochemical
Settings: 25° C., 50 μM Gln-bNA, pH 8.0
Method: The reaction mixture having a volume of 100-μl has contained 50 μM of fluorogenic substrate; ˜0.2 units of human pyroglutaminyl aminopeptidase (1 unit is defined as an amount hydrolyzing 1 micromole of pGlu-bNA per minute), and an aliquot of the recombinant intracellular human glutaminyl cyclase (gQC) in 50 mM trisaminomethane-HCl and 5% glycerol, a pH is 8.0.
The further course of the reaction was monitored spectrophotometrically (the wavelength of the excitation and emission were 320 and 410 nm). The enzyme activity was determined by an amount of the released 2-naphthyl amide (bNA), calculated from the calibration curve. The IC50 values were calculated using nonlinear regression of “inhibitor concentration”-“enzymatic activity” curve.

Chain of recombinant intracellular human glutaminyl cyclase (Q9NXS2 whole entry): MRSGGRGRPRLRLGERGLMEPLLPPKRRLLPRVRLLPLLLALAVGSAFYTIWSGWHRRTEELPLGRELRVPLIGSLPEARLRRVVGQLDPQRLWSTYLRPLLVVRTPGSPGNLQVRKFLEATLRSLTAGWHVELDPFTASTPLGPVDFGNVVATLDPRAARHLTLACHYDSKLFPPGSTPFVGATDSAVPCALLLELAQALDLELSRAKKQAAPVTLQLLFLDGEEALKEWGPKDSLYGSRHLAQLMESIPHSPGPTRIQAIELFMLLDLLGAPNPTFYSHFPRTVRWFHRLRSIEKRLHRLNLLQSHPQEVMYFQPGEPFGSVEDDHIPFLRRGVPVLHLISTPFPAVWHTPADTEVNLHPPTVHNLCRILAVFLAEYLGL

Which results are given for `O=C(NCCc1cnc[nH]1)NCCc1cnc[nH]1` [Compound III, N,N′-bis[2-(1H-imidazol-4-yl)ethyl]carbamide]?
IC50: 3.5 µM; Ki: 2 µM
